Measurements published in patent publication USRE40086E1, “Method for treating bacterial infection with novel 7-substituted-9-substituted amino 6-demethyl-6-deoxytetracyclines” (Wyeth Holdings Corporation, priority 1991, dated 2008).

How the values were obtained:
[1] = tested on: S. aureus IVES 1983 (meth. resistant); experiment: MIC, agar dilution; format: cell-based; settings: S. aureus IVES 1983; Table IA; unit assumed
[2] = tested on: X. maltophilia NEMC 87210; experiment: MIC, agar dilution (Table IA); format: cell-based; settings: unit assumed
E. coli #311 (MP) = experiment: MIC, agar dilution (Table IA); format: cell-based; settings: unit assumed
E. coli UBMS 88-1 (tetB) = experiment: MIC, agar dilution; format: cell-based; settings: E. coli UBMS 88-1 TetB; Table IA; unit assumed
E. coli UBMS 90-4 (tetM) = experiment: MIC, agar dilution; format: cell-based; settings: E. coli UBMS 90-4 TetM; Table IA; unit assumed
E. faecalis 12201 = experiment: MIC, agar dilution; format: cell-based; settings: Enterococcus 12201; Table IA; unit assumed
S. mariescens FDOR 8733 = experiment: MIC, agar dilution (Table IA); format: cell-based; settings: unit assumed
[3] = tested on: S. haemolyticus AVAH 88-3; experiment: MIC, agar dilution; format: cell-based; settings: S. hemolyticus AVHAH 88-3; Table IA; unit assumed
E. coli J3272 TetD = experiment: MIC, agar dilution (Table IA); format: cell-based; settings: unit assumed
E. coli MC4100 TetB = experiment: MIC, agar dilution (Table IA); format: cell-based; settings: unit assumed
[4] = tested on: S. aureus UBMS 90-3 (Sensitive); experiment: MIC, agar dilution; format: cell-based; settings: S. aureus UBMS 90-3; Table IA; unit assumed
E. coli ATCC 25922 = experiment: MIC, agar dilution; format: cell-based; settings: E. coli ATCC 25922; Table IA; unit assumed
[5] = tested on: Ps. acruginosa ATCC 27853; experiment: MIC, agar dilution (Table IA); format: cell-based; settings: unit assumed
E. coli J3272 TetC = experiment: MIC, agar dilution (Table IA); format: cell-based; settings: unit assumed
E. coli PRP1 TetA = experiment: MIC, agar dilution (Table IA); format: cell-based; settings: unit assumed
[6] = tested on: S. aureus UBMS 88-4 (Sensitive); experiment: MIC, agar dilution; format: cell-based; settings: S. aureus UBMS 88-4; Table IA; unit assumed
E. coli UBMS 89-1 (tetM) = experiment: MIC, agar dilution; format: cell-based; settings: E. coli UBMS 89-1 TetM; Table IA; unit assumed
S. aureus ROSE (MP) = experiment: MIC, agar dilution (Table IA); format: cell-based; settings: unit assumed
E. coli UBMS 90-5 = experiment: MIC, agar dilution (Table IA); format: cell-based; settings: unit assumed
[7] = tested on: S. aureus ATCC 29213 (Sensitive); experiment: MIC, agar dilution; format: cell-based; settings: S. aureus ATCC 29213; Table IA; unit assumed
[8] = tested on: S. aureus UBMS 90-2 (tetM); experiment: MIC, agar dilution; format: cell-based; settings: S. aureus UBMS 90-2 TetM; Table IA; unit assumed
[9] = tested on: S. aureus UBMS 88-5 (tetM); experiment: MIC, agar dilution; format: cell-based; settings: S. aureus UBMS 88-5 TetM; Table IA; unit assumed
E. coli J3272 Tet sens. = experiment: MIC, agar dilution (Table IA); format: cell-based; settings: unit assumed
[10] = tested on: S. aureus UBMS 88-7 (tetK); experiment: MIC, agar dilution; format: cell-based; settings: S. aureus UBMS 88-7 TetK; Table IA; unit assumed
S. aureus NEMC 8769/89-4 = experiment: MIC, agar dilution (Table IA); format: cell-based; settings: unit assumed
[11] = tested on: S. aureus UBMS 90-1 (tetM); experiment: MIC, agar dilution; format: cell-based; settings: S. aureus UBMS 90-1 TetM; Table IA; unit assumed
E. coli BAJ9003 = experiment: MIC, agar dilution (Table IA); format: cell-based; settings: unit assumed
[12] = tested on: Wild Type S30 extract, E. coli strain MRE600 (tetracycline sensitive); experiment: E. coli in vitro transcription and protein translation, 35S-methionine incorporation (Table VIII)
[13] = tested on: E. coli UBMS 89-2 (Sensitive); experiment: MIC, agar dilution; format: cell-based; settings: E. coli UBMS 89-2 Tet Sens.; Table IA; unit assumed
[14] = tested on: S. aureus Smith (Sensitive); experiment: MIC, agar dilution; format: cell-based; settings: S. aureus SMITH (MP); Table IA; unit assumed
E. faecalis ATCC 29212 = experiment: MIC, agar dilution; format: cell-based; settings: E. faecalis ATCC 29212; Table IA; unit assumed
[15] = tested on: TetM S30 extract, derivative of E. coli MRE600 containing the tetM determinant; experiment: E. coli in vitro transcription and protein translation, 35S-methionine incorporation (Table VIII)
[16] = tested on: S. aureus IVES 2943 (meth. resistant); experiment: MIC, agar dilution; format: cell-based; settings: S. aureus IVES 2943; Table IA; unit assumed
E. coli J2175 = experiment: MIC, agar dilution (Table IA); format: cell-based; settings: unit assumed

SMILES	Antibacterial activity (MIC) [1] [µg/mL]	Antibacterial activity (MIC) [2] [µg/mL]	Antibacterial activity (MIC) (E. coli #311 (MP)) [µg/mL]	Antibacterial activity (MIC) (E. coli UBMS 88-1 (tetB)) [µg/mL]	Antibacterial activity (MIC) (E. faecalis 12201) [µg/mL]	Antibacterial activity (MIC) (S. mariescens FDOR 8733) [µg/mL]	Antibacterial activity (MIC) [3] [µg/mL]	Antibacterial activity (MIC) (E. coli J3272 TetD) [µg/mL]	Antibacterial activity (MIC) (E. coli MC4100 TetB) [µg/mL]	Antibacterial activity (MIC) [4] [µg/mL]	Antibacterial activity (MIC) (E. coli ATCC 25922) [µg/mL]	Antibacterial activity (MIC) [5] [µg/mL]	Antibacterial activity (MIC) (E. coli J3272 TetC) [µg/mL]	Antibacterial activity (MIC) (E. coli PRP1 TetA) [µg/mL]	Antibacterial activity (MIC) [6] [µg/mL]	Antibacterial activity (MIC) (E. coli UBMS 89-1 (tetM)) [µg/mL]	Antibacterial activity (MIC) (S. aureus ROSE (MP)) [µg/mL]	Antibacterial activity (MIC) (E. coli UBMS 90-5) [µg/mL]	Antibacterial activity (MIC) [7] [µg/mL]	Antibacterial activity (MIC) [8] [µg/mL]	further results
CN(C)c1cc(NC(=O)CNC2CC2)c(O)c2c1CC1CC3C(N(C)C)C(O)=C(C(N)=O)C(=O)C3(O)C(O)=C1C2=O.Cl.Cl (stereo not drawn) [QQ, [4S-(4alpha,12aalpha))-9[[(Cyclopropylamino)acetyl)amino]-4,7-Bis(dimethylamino)-1,4,4a,5,5a,6,11,12a-octahydro-3,10,12,12a-tetrahydroxy-1,11-dioxo-2-naphthacenecarboxamide dihydrochloride]	8	2	2	4	0.5	> 32	2	2	2	0.5	2	> 32	8	32	0.5	1	16	2	0.5	0.5	Antibacterial activity (MIC) (E. coli UBMS 90-4 (tetM)): 2 µg/mL; Antibacterial activity (MIC) [9]: 0.5 µg/mL; Antibacterial activity (MIC) (E. coli J3272 Tet sens.): 2 µg/mL; Antibacterial activity (MIC) [10]: 4 µg/mL; Antibacterial activity (MIC) (S. aureus NEMC 8769/89-4): 0.12 µg/mL; Antibacterial activity (MIC) [11]: 0.5 µg/mL; Antibacterial activity (MIC) (E. coli BAJ9003): 0.25 µg/mL; % INHIBITION Wild Type S30 ([12]; 0.06 mg/ml): 92%; % INHIBITION Wild Type S30 ([12]; 0.2 mg/ml): 97%; % INHIBITION Wild Type S30 ([12]; 1.0 mg/ml): 99%; Antibacterial activity (MIC) [13]: 2 µg/mL; Antibacterial activity (MIC) [14]: 0.25 µg/mL; Antibacterial activity (MIC) (E. faecalis ATCC 29212): 0.25 µg/mL; % INHIBITION TetM S30 ([15]; 0.06 mg/ml): 85%; % INHIBITION TetM S30 ([15]; 0.2 mg/ml): 95%; % INHIBITION TetM S30 ([15]; 1.0 mg/ml): 99%; Antibacterial activity (MIC) [16]: 16 µg/mL; Antibacterial activity (MIC) (E. coli J2175): 2 µg/mL
CNCC(=O)Nc1cc(N(C)C)c2c(c1O)C(=O)C1=C(O)[C@]3(O)C(=O)C(C(N)=O)=C(O)[C@@H](N(C)C)C3CC1C2.Cl.Cl (stereo partly drawn) [MM, [4S-(4alpha,12aalpha)]-4,7-Bis(dimethylamino)-1,4,4a,5,5a,6,11,12a-octahydro-3,10,12,12a-tetrahydroxy-9-[[(methylamino)acetyl]amino]-1,11-dioxo-2-naphthacenecarboxamide dihydrochloride]	16	8	1	1	0.25	16	1	0.05	1	0.5	1	16	8	16	0.5	1	32	1	1	0.5	Antibacterial activity (MIC) [9]: 0.5 µg/mL; Antibacterial activity (MIC) (E. coli J3272 Tet sens.): 1 µg/mL; Antibacterial activity (MIC) [10]: 16 µg/mL; Antibacterial activity (MIC) (S. aureus NEMC 8769/89-4): 0.5 µg/mL; Antibacterial activity (MIC) [11]: 1 µg/mL; Antibacterial activity (MIC) (E. coli BAJ9003): 0.25 µg/mL; % INHIBITION Wild Type S30 ([12]; 0.06 mg/ml): 95%; % INHIBITION Wild Type S30 ([12]; 0.2 mg/ml): 98%; % INHIBITION Wild Type S30 ([12]; 1.0 mg/ml): 99%; Antibacterial activity (MIC) [13]: 1 µg/mL; Antibacterial activity (MIC) [14]: 0.5 µg/mL; Antibacterial activity (MIC) (E. faecalis ATCC 29212): 0.25 µg/mL; % INHIBITION TetM S30 ([15]; 0.06 mg/ml): 92%; % INHIBITION TetM S30 ([15]; 0.2 mg/ml): 97%; % INHIBITION TetM S30 ([15]; 1.0 mg/ml): 99%; Antibacterial activity (MIC) [16]: 32 µg/mL; Antibacterial activity (MIC) (E. coli J2175): 1 µg/mL
CN(C)c1cc(NC(=O)CNC2CCC2)c(O)c2c1CC1CC3C(N(C)C)C(O)=C(C(N)=O)C(=O)C3(O)C(O)=C1C2=O (stereo not drawn) [MMM, [4S-(4alpha,12aalpha)]-g-[[(Cyclobutylamino)acetyl]amino]-4,7-Bis(dimethylamino)-1,4,4a,5,5a,6,11,12a-octahydro-3,10,12,12a-tetrahydroxy-1,11-dioxo-2-naphthacenecarboxamide]	4	0.5	0.25	0.5	0.24	8	0.24	0.12	0.25	0.12	0.25	32	0.5	4	0.25	0.25	8	0.5	0.25	0.25	Antibacterial activity (MIC) (E. coli UBMS 90-4 (tetM)): 0.25 µg/mL; Antibacterial activity (MIC) [9]: 0.25 µg/mL; Antibacterial activity (MIC) (E. coli J3272 Tet sens.): 0.06 µg/mL; Antibacterial activity (MIC) [10]: 4 µg/mL; Antibacterial activity (MIC) (S. aureus NEMC 8769/89-4): 0.5 µg/mL; Antibacterial activity (MIC) [11]: 0.5 µg/mL; Antibacterial activity (MIC) (E. coli BAJ9003): 0.03 µg/mL; Antibacterial activity (MIC) [13]: 0.5 µg/mL; Antibacterial activity (MIC) [14]: 0.25 µg/mL; Antibacterial activity (MIC) (E. faecalis ATCC 29212): 0.25 µg/mL; Antibacterial activity (MIC) [16]: 4 µg/mL; Antibacterial activity (MIC) (E. coli J2175): 0.25 µg/mL
